{"source": "the C3SDB collision cross section collection", "data": [{"settings": "[M+HCOO]-; instrument: DT; single field, calibrated with Agilent tune mix (Agilent)", "units": {"collision cross section (N2)": "Å²"}, "values": [{"smiles": "CCCCCCCCCCCCC=CC[C@@H](O)[C@H](CO[C@@H]1O[C@H](CO)[C@@H](O)C(O)C1O)NC(=O)CC=CCCCCCCCCCCCCCCCCCCCC", "note": "(stereo partly drawn) [GlcCer(42:2)]", "collision cross section (N2)": 298.5}, {"smiles": "CCCCCCCCCCCCCCCCCCCCCCCC(=O)N[C@@H](CO[C@@H]1O[C@H](CO)[C@@H](O)C(O)C1O)[C@H](O)CCCCCCCCCCCCCCC", "note": "(stereo partly drawn) [GlcCer(42:0)]", "collision cross section (N2)": 300.8}]}, {"settings": "[M+H]+; instrument: DT; single field, calibrated with Agilent tune mix (Agilent)", "units": {"collision cross section (N2)": "Å²"}, "values": [{"smiles": "CCCCCCCCCCCCC=CC[C@@H](O)[C@H](CO[C@@H]1O[C@H](CO)[C@@H](O)C(O)C1O)NC(=O)CC=CCCCCCCCCCCCCCC", "note": "(stereo partly drawn) [GlcCer(36:2)]", "collision cross section (N2)": 283.4}, {"smiles": "CCCC/C=C\\C/C=C\\CCCCCCCC(=O)O[C@H](COC(=O)CCCCCCC/C=C\\CCCCCCCC)COP(=O)([O-])OCC[N+](C)(C)C", "note": "[PC(35:3)]", "collision cross section (N2)": 284.2}, {"smiles": "CCCCCCCCCCCCC=CC[C@@H](O)[C@H](CO[C@@H]1O[C@H](CO)[C@@H](O)C(O)C1O)NC(=O)CC=CCCCCCCCCCCCCCCCCCCCC", "note": "(stereo partly drawn) [GlcCer(42:2)]", "collision cross section (N2)": 300.9}, {"smiles": "CCCCCCCCCC/C=C\\CCCCCCCCCC(=O)O[C@H](COC(=O)CCCCCCCCCCCC)COP(=O)(O)OCCN", "note": "[PE(35:1)]", "collision cross section (N2)": 276.6}]}, {"settings": "[M+Na]+; instrument: DT; single field, calibrated with Agilent tune mix (Agilent)", "units": {"collision cross section (N2)": "Å²"}, "values": [{"smiles": "CCCCCCCCCCCCC=CC[C@@H](O)[C@H](CO[C@@H]1O[C@H](CO)[C@@H](O)C(O)C1O)NC(=O)CC=CCCCCCCCCCCCCCCCCCCCC", "note": "(stereo partly drawn) [GlcCer(42:2)]", "collision cross section (N2)": 300.4}]}, {"settings": "[M+K]+; instrument: DT; stepped-field", "units": {"collision cross section (N2)": "Å²"}, "values": [{"smiles": "CCCC/C=C\\C/C=C\\CCCCCCCC(=O)O[C@H](COC(=O)CCCCCCC/C=C\\CCCCCCCC)COP(=O)([O-])OCC[N+](C)(C)C", "note": "[PC(35:3)]", "collision cross section (N2)": 296.1}, {"smiles": "CCCCCCCCCC/C=C\\CCCCCCCCCC(=O)O[C@H](COC(=O)CCCCCCCCCCCC)COP(=O)(O)OCCN", "note": "[PE(35:1)]", "collision cross section (N2)": 283.6}]}, {"settings": "[M+Na]+; instrument: DT; stepped-field", "units": {"collision cross section (N2)": "Å²"}, "values": [{"smiles": "CCCCCCCCCCCCC=CC[C@@H](O)[C@H](CO[C@@H]1O[C@H](CO)[C@@H](O)C(O)C1O)NC(=O)CC=CCCCCCCCCCCCCCC", "note": "(stereo partly drawn) [GlcCer(36:2)]", "collision cross section (N2)": 282.6}, {"smiles": "CCCCCCCCCCCCC=CC[C@@H](O)[C@H](CO[C@@H]1O[C@H](CO)[C@@H](O)C(O)C1O)NC(=O)CC=CCCCCCCCCCCCCCCCCCCCC", "note": "(stereo partly drawn) [GlcCer(42:2)]", "collision cross section (N2)": 305.2}, {"smiles": "CCCCCCCCCC/C=C\\CCCCCCCCCC(=O)O[C@H](COC(=O)CCCCCCCCCCCC)COP(=O)(O)OCCN", "note": "[PE(35:1)]", "collision cross section (N2)": 282.9}, {"smiles": "CCCCCCCCCCCCCCCCCCCCCCCC(=O)N[C@@H](CO[C@@H]1O[C@H](CO)[C@@H](O)C(O)C1O)[C@H](O)CCCCCCCCCCCCCCC", "note": "(stereo partly drawn) [GlcCer(42:0)]", "collision cross section (N2)": 308.2}, {"smiles": "CC/C=C\\C/C=C\\C/C=C\\C/C=C\\C/C=C\\C/C=C\\CCC(=O)O[C@H](COC(=O)CCCCCCCCCCCCCCCCCC)COP(=O)(O)OC[C@H](N)C(=O)O", "note": "[PS(41:6)]", "collision cross section (N2)": 303.3}]}, {"settings": "[M+H]+; instrument: TW", "units": {"collision cross section (N2)": "Å²"}, "values": [{"smiles": "CN1CCCN=C1/C=C/c1cccs1", "note": "[Pyrantel]", "collision cross section (N2)": 143}, {"smiles": "C/N=C(/O)CSP(=O)(OC)OC", "note": "[Omethoate]", "collision cross section (N2)": 134.62}, {"smiles": "CC(=O)c1ccc2c(c1)N(CCCN(C)C)c1ccccc1S2", "note": "[Acetopromazine]", "collision cross section (N2)": 160.5}, {"smiles": "CN(C)CCCN1c2ccccc2Sc2ccc(Cl)cc21", "note": "[Chlorpromazine]", "collision cross section (N2)": 169.1}, {"smiles": "CN1CCN(c2c(F)cc3c(=O)c(C(=O)O)cn4c3c2OCN4C)CC1", "note": "[Marbofloxacin]", "collision cross section (N2)": 179.6}, {"smiles": "CN(C)[C@@H]1C(O)=C(C(=N)O)C(=O)[C@@]2(O)C(O)=C3C(=O)c4c(O)ccc(Cl)c4[C@@](C)(O)[C@H]3C[C@@H]12", "note": "[Chlortetracycline]", "collision cross section (N2)": 203.9}, {"smiles": "CC(C)(C)NCC(O)c1cc(Cl)c(N)c(Cl)c1", "note": "(stereo not drawn) [Clenbuterol]", "collision cross section (N2)": 159.2}, {"smiles": "Nc1ccc(S(=O)(=O)Nc2cnc3ccccc3n2)cc1", "note": "[Sulfaquinoxaline]", "collision cross section (N2)": 164.8}, {"smiles": "C[C@]12Cc3cn[nH]c3C[C@@H]1CC[C@@H]1[C@@H]2CC[C@@]2(C)[C@H]1C[C@H](O)[C@]2(C)O", "note": "[16B-hydroxystanozolol]", "collision cross section (N2)": 192.1}, {"smiles": "CCN(CC)C(=O)c1cccc(C)c1", "note": "[DEET]", "collision cross section (N2)": 142.48}, {"smiles": "COc1ccc(/C(=C/C(=O)N2CCOCC2)c2ccc(Cl)cc2)cc1OC", "note": "[Dimethomorph I]", "collision cross section (N2)": 199.03}, {"smiles": "C=CCOC(Cn1ccnc1)c1ccc(Cl)cc1Cl", "note": "(stereo not drawn) [Imazalil]", "collision cross section (N2)": 164.99}, {"smiles": "Nc1c(Cl)c(F)nc(OCC(=O)O)c1Cl", "note": "[Fluroxypyr]", "collision cross section (N2)": 140.69}, {"smiles": "Nc1cnn(-c2ccccc2)c(=O)c1Cl", "note": "[Chloridazon]", "collision cross section (N2)": 141.59}, {"smiles": "O=[N+]([O-])/N=C1\\NCCN1Cc1ccc(Cl)nc1", "note": "[Imidacloprid]", "collision cross section (N2)": 149.62}, {"smiles": "CCCSP(=O)(OCC)SCCC", "note": "[Ethoprophos]", "collision cross section (N2)": 149.27}, {"smiles": "Cc1nnc(-c2ccccc2)c(=O)n1N", "note": "[Metamitron]", "collision cross section (N2)": 140.93}, {"smiles": "CON(C)C(=O)Nc1ccc(Br)cc1", "note": "[Metobromuron]", "collision cross section (N2)": 145.41}, {"smiles": "COc1nc(C)nc(NC(=O)NS(=O)(=O)c2ccccc2CCC(F)(F)F)n1", "note": "[Prosulfuron]", "collision cross section (N2)": 187.01}, {"smiles": "CC1=C(C(=O)Nc2ccccc2)SCCO1", "note": "[Carboxin]", "collision cross section (N2)": 149.35}, {"smiles": "O=[N+]([O-])c1cnc(CO)n1CCO", "note": "[Hydroxymetronidazole]", "collision cross section (N2)": 128.2}, {"smiles": "C=C[C@]1(C)C[C@@H](OC(=O)CSCCN(CC)CC)C2(C)C(C)CC[C@]3(CCC(=O)[C@@H]23)[C@@H](C)[C@@H]1O", "note": "(stereo partly drawn) [Tiamulin]", "collision cross section (N2)": 218.9}, {"smiles": "COC(=O)N(OC)c1ccccc1COc1ccn(-c2ccc(Cl)cc2)n1", "note": "[Pyraclostrobin]", "collision cross section (N2)": 183.19}, {"smiles": "CC(C)N1C(=O)N(c2ccccc2)CS/C1=N\\C(C)(C)C", "note": "[Buprofezin]", "collision cross section (N2)": 173.58}, {"smiles": "N#Cc1nn(-c2c(Cl)cc(C(F)(F)F)cc2Cl)c(N)c1S(=O)C(F)(F)F", "note": "(stereo not drawn) [Fipronil]", "collision cross section (N2)": 180.77}, {"smiles": "CC1C(c2ccc(Cl)cc2)SC(=O)N1C(=O)NC1CCCCC1", "note": "(stereo not drawn) [Hexythiazox]", "collision cross section (N2)": 183.83}, {"smiles": "O=C(NC(=O)c1c(F)cccc1F)Nc1cc(Cl)c(F)c(Cl)c1F", "note": "[Teflubenzuron]", "collision cross section (N2)": 171.81}, {"smiles": "Cc1ccnc(NS(=O)(=O)c2ccc(N)cc2)n1", "note": "[Sulfamerazine]", "collision cross section (N2)": 154.8}, {"smiles": "O=C(O)\\C2=C\\N(c1cc(c(F)cc1C2=O)N3CCNCC3)CC", "note": "[Norfloxacine]", "collision cross section (N2)": 171}, {"smiles": "CC(C)(C)[C@H](O)[C@H](Cc1ccc(Cl)cc1)n1cncn1", "note": "(racemic) [Paclobutrazol]", "collision cross section (N2)": 168.73}, {"smiles": "Cc1nc(N(C)C)nc(OC(=O)N(C)C)c1C", "note": "[Pirimicarb]", "collision cross section (N2)": 154.68}, {"smiles": "O=C(CCCN1CCC(O)(c2ccc(Cl)cc2)CC1)c1ccc(F)cc1", "note": "[Haloperidol]", "collision cross section (N2)": 193.9}, {"smiles": "Cc1ncc([N+](=O)[O-])n1CCO", "note": "[Metronidazole]", "collision cross section (N2)": 124.2}, {"smiles": "CCCCc1c(C)nc(NCC)[nH]c1=O", "note": "[Ethirimol]", "collision cross section (N2)": 150.65}, {"smiles": "O=C2\\C(=C(/N(N2c1ccccc1)C)C)C(C)C", "note": "[Propyphenazone]", "collision cross section (N2)": 150}, {"smiles": "CCCCOC(=O)N(C)SN(C)C(=O)Oc1cccc2c1OC(C)(C)C2", "note": "[Furathiocarb]", "collision cross section (N2)": 190.73}, {"smiles": "O=C(Nc1ccccc1)N(Cc1ccc(Cl)cc1)C1CCCC1", "note": "[Pencycuron]", "collision cross section (N2)": 179.71}, {"smiles": "Nc1ccc(S(=O)(=O)Nc2ccccn2)cc1", "note": "[Sulfapyridine]", "collision cross section (N2)": 142.3}, {"smiles": "CCOC(=O)C1CC(=O)C(=C(O)C2CC2)C(=O)C1", "note": "(stereo not drawn) [Trinexapac-ethyl]", "collision cross section (N2)": 152.92}, {"smiles": "O=C\\1\\C=C/[C@]3(/C(=C/1)CC[C@H]4[C@@H]2CCC(=O)[C@]2(CC[C@H]34)C)C", "note": "[1,4-androstadiene-3,17-dione]", "collision cross section (N2)": 166.5}, {"smiles": "C=C1C[C@@]23CC[C@H]4[C@@](C)(CCC[C@@]4(C)C(=O)O)[C@@H]2CC[C@]1(O[C@@H]1O[C@H](CO)[C@@H](O)[C@H](O)[C@H]1O[C@@H]1O[C@H](CO)[C@@H](O)[C@H](O)[C@H]1O)C3", "note": "[Steviolbioside]", "collision cross section (N2)": 235.78}, {"smiles": "C[C@]12CCC(=O)C=C1CC[C@@H]1[C@@H]2CC[C@@]2(C)[C@H]1CC[C@]2(C)O", "note": "[17a-Methyltestosterone]", "collision cross section (N2)": 173.7}, {"smiles": "N#CC(CCc1ccc(Cl)cc1)(Cn1cncn1)c1ccccc1", "note": "(stereo not drawn) [Fenbuconazole]", "collision cross section (N2)": 182.44}, {"smiles": "CCNc1nc(Cl)nc(NCC)n1", "note": "[Simazine]", "collision cross section (N2)": 142.09}]}]}
